± gives the expanded uncertainty stated by the source.
Experiment: xn = mol fraction of the nth substance listed
Conditions: Liquid, Vibrating tube method

For `CCCCCCCCCCCCC` [tridecane] + O=C=O, the mass density (333.3 K, 17000 kPa, x2 = 0.2526) was 746.5 ± 0.4 kg/m3, the mass density (333.3 K, 18000 kPa, x2 = 0.0955) was 743.9 ± 0.4 kg/m3 and the mass density (333.3 K, 18000 kPa, x2 = 0.2526) was 747.3 ± 0.4 kg/m3. For the same compound, the mass density (333.3 K, 19000 kPa, x2 = 0.0955) was 744.6 ± 0.4 kg/m3, the mass density (333.3 K, 19000 kPa, x2 = 0.2526) was 748.1 ± 0.4 kg/m3 and the mass density (333.3 K, 20000 kPa, x2 = 0.0955) was 745.3 ± 0.4 kg/m3. For the same compound, the mass density (333.3 K, 20000 kPa, x2 = 0.2526) was 748.9 ± 0.4 kg/m3, the mass density (333.3 K, 21000 kPa, x2 = 0.0955) was 746.1 ± 0.4 kg/m3 and the mass density (333.3 K, 21000 kPa, x2 = 0.2526) was 749.7 ± 0.4 kg/m3. It also gave a mass density (333.3 K, 22000 kPa, x2 = 0.0955) of 746.7 ± 0.4 kg/m3, a mass density (333.3 K, 22000 kPa, x2 = 0.2526) of 750.5 ± 0.4 kg/m3 and a mass density (333.3 K, 23000 kPa, x2 = 0.0955) of 747.4 ± 0.4 kg/m3. The mass density (333.3 K, 23000 kPa, x2 = 0.2526) was 751.2 ± 0.4 kg/m3, the mass density (333.3 K, 24000 kPa, x2 = 0.0955) was 748.1 ± 0.4 kg/m3 and the mass density (333.3 K, 24000 kPa, x2 = 0.2526) was 751.9 ± 0.4 kg/m3. It also gave a mass density (333.3 K, 25000 kPa, x2 = 0.0955) of 748.7 ± 0.4 kg/m3, a mass density (333.3 K, 25000 kPa, x2 = 0.2526) of 752.6 ± 0.4 kg/m3 and a mass density (343.02 K, 8000 kPa, x2 = 0.5259) of 739.5 ± 0.3 kg/m3. The mass density (343.02 K, 9000 kPa, x2 = 0.5259) was 740.9 ± 0.3 kg/m3, the mass density (343.02 K, 10000 kPa, x2 = 0.5259) was 742.3 ± 0.3 kg/m3 and the mass density (343.02 K, 11000 kPa, x2 = 0.5259) was 743.7 ± 0.3 kg/m3. The mass density (343.02 K, 12000 kPa, x2 = 0.5259) was 745.1 ± 0.3 kg/m3, the mass density (343.02 K, 13000 kPa, x2 = 0.5259) was 746.4 ± 0.3 kg/m3 and the mass density (343.02 K, 14000 kPa, x2 = 0.5259) was 747.6 ± 0.3 kg/m3. For the same compound, the mass density (343.02 K, 15000 kPa, x2 = 0.5259) was 748.9 ± 0.3 kg/m3, the mass density (343.02 K, 16000 kPa, x2 = 0.5259) was 750.1 ± 0.3 kg/m3 and the mass density (343.02 K, 17000 kPa, x2 = 0.5259) was 751.3 ± 0.4 kg/m3. For the same compound, the mass density (343.02 K, 18000 kPa, x2 = 0.5259) was 752.5 ± 0.4 kg/m3, the mass density (343.02 K, 19000 kPa, x2 = 0.5259) was 753.7 ± 0.4 kg/m3 and the mass density (343.02 K, 20000 kPa, x2 = 0.5259) was 754.8 ± 0.4 kg/m3. The mass density (343.02 K, 21000 kPa, x2 = 0.5259) was 755.9 ± 0.4 kg/m3, the mass density (343.02 K, 22000 kPa, x2 = 0.5259) was 757 ± 0.4 kg/m3 and the mass density (343.02 K, 23000 kPa, x2 = 0.5259) was 758.1 ± 0.4 kg/m3. It also gave a mass density (343.02 K, 24000 kPa, x2 = 0.5259) of 759.2 ± 0.4 kg/m3, a mass density (343.02 K, 25000 kPa, x2 = 0.5259) of 760.2 ± 0.4 kg/m3 and a mass density (343.13 K, 15000 kPa, x2 = 0.8978) of 710.8 ± 0.5 kg/m3. The mass density (343.13 K, 16000 kPa, x2 = 0.8978) was 723.5 ± 0.5 kg/m3, the mass density (343.13 K, 17000 kPa, x2 = 0.8978) was 733.2 ± 0.5 kg/m3 and the mass density (343.13 K, 18000 kPa, x2 = 0.8978) was 741.1 ± 0.5 kg/m3. For the same compound, the mass density (343.13 K, 19000 kPa, x2 = 0.8978) was 748 ± 0.4 kg/m3, the mass density (343.13 K, 20000 kPa, x2 = 0.8978) was 755 ± 0.4 kg/m3 and the mass density (343.13 K, 21000 kPa, x2 = 0.8978) was 761.4 ± 0.4 kg/m3. It also gave a mass density (343.13 K, 22000 kPa, x2 = 0.8978) of 767.3 ± 0.4 kg/m3, a mass density (343.13 K, 23000 kPa, x2 = 0.8978) of 772.8 ± 0.4 kg/m3 and a mass density (343.13 K, 24000 kPa, x2 = 0.8978) of 778 ± 0.4 kg/m3. For the same compound, the mass density (343.13 K, 25000 kPa, x2 = 0.8978) was 782.8 ± 0.4 kg/m3, the mass density (343.14 K, 9000 kPa, x2 = 0.0955) was 729.8 ± 0.3 kg/m3 and the mass density (343.14 K, 9000 kPa, x2 = 0.2526) was 732.2 ± 0.3 kg/m3. It also gave a mass density (343.14 K, 10000 kPa, x2 = 0.0955) of 730.6 ± 0.3 kg/m3, a mass density (343.14 K, 10000 kPa, x2 = 0.2526) of 733.2 ± 0.3 kg/m3 and a mass density (343.14 K, 11000 kPa, x2 = 0.0955) of 731.5 ± 0.3 kg/m3. For the same compound, the mass density (343.14 K, 11000 kPa, x2 = 0.2526) was 734.1 ± 0.3 kg/m3, the mass density (343.14 K, 12000 kPa, x2 = 0.0955) was 732.4 ± 0.4 kg/m3 and the mass density (343.14 K, 12000 kPa, x2 = 0.2526) was 735 ± 0.3 kg/m3. The mass density (343.14 K, 13000 kPa, x2 = 0.0955) was 733.2 ± 0.4 kg/m3, the mass density (343.14 K, 13000 kPa, x2 = 0.2526) was 736 ± 0.3 kg/m3 and the mass density (343.14 K, 14000 kPa, x2 = 0.0955) was 734.1 ± 0.4 kg/m3. The mass density (343.14 K, 14000 kPa, x2 = 0.2526) was 736.9 ± 0.4 kg/m3, the mass density (343.14 K, 15000 kPa, x2 = 0.0955) was 734.9 ± 0.4 kg/m3 and the mass density (343.14 K, 15000 kPa, x2 = 0.2526) was 737.8 ± 0.4 kg/m3. For the same compound, the mass density (343.14 K, 16000 kPa, x2 = 0.0955) was 735.7 ± 0.4 kg/m3, the mass density (343.14 K, 16000 kPa, x2 = 0.2526) was 738.6 ± 0.4 kg/m3 and the mass density (343.14 K, 17000 kPa, x2 = 0.0955) was 736.5 ± 0.4 kg/m3. For the same compound, the mass density (343.14 K, 17000 kPa, x2 = 0.2526) was 739.5 ± 0.4 kg/m3, the mass density (343.14 K, 18000 kPa, x2 = 0.0955) was 737.3 ± 0.4 kg/m3 and the mass density (343.14 K, 18000 kPa, x2 = 0.2526) was 740.4 ± 0.4 kg/m3. For the same compound, the mass density (343.14 K, 19000 kPa, x2 = 0.0955) was 738.1 ± 0.4 kg/m3, the mass density (343.14 K, 19000 kPa, x2 = 0.2526) was 741.2 ± 0.4 kg/m3 and the mass density (343.14 K, 20000 kPa, x2 = 0.0955) was 738.9 ± 0.4 kg/m3. For the same compound, the mass density (343.14 K, 20000 kPa, x2 = 0.2526) was 742 ± 0.4 kg/m3, the mass density (343.14 K, 21000 kPa, x2 = 0.0955) was 739.6 ± 0.4 kg/m3 and the mass density (343.14 K, 21000 kPa, x2 = 0.2526) was 742.8 ± 0.4 kg/m3. It also gave a mass density (343.14 K, 22000 kPa, x2 = 0.0955) of 740.4 ± 0.4 kg/m3, a mass density (343.14 K, 22000 kPa, x2 = 0.2526) of 743.6 ± 0.4 kg/m3 and a mass density (343.14 K, 23000 kPa, x2 = 0.0955) of 741.1 ± 0.4 kg/m3. For the same compound, the mass density (343.14 K, 23000 kPa, x2 = 0.2526) was 744.4 ± 0.4 kg/m3, the mass density (343.14 K, 24000 kPa, x2 = 0.0955) was 741.8 ± 0.4 kg/m3 and the mass density (343.14 K, 24000 kPa, x2 = 0.2526) was 745.1 ± 0.4 kg/m3. For the same compound, the mass density (343.14 K, 25000 kPa, x2 = 0.0955) was 742.5 ± 0.5 kg/m3, the mass density (343.14 K, 25000 kPa, x2 = 0.2526) was 745.9 ± 0.4 kg/m3 and the mass density (343.32 K, 14000 kPa, x2 = 0.7549) was 752.1 ± 0.4 kg/m3. It also gave a mass density (343.32 K, 15000 kPa, x2 = 0.7549) of 755.2 ± 0.3 kg/m3, a mass density (343.32 K, 16000 kPa, x2 = 0.7549) of 758 ± 0.3 kg/m3 and a mass density (343.32 K, 17000 kPa, x2 = 0.7549) of 760.9 ± 0.4 kg/m3. The mass density (343.32 K, 18000 kPa, x2 = 0.7549) was 763.8 ± 0.4 kg/m3, the mass density (343.32 K, 19000 kPa, x2 = 0.7549) was 766.7 ± 0.4 kg/m3 and the mass density (343.32 K, 20000 kPa, x2 = 0.7549) was 769.6 ± 0.4 kg/m3. The mass density (343.32 K, 21000 kPa, x2 = 0.7549) was 772.4 ± 0.4 kg/m3, the mass density (343.32 K, 22000 kPa, x2 = 0.7549) was 775.2 ± 0.4 kg/m3 and the mass density (343.32 K, 23000 kPa, x2 = 0.7549) was 777.9 ± 0.4 kg/m3. The mass density (343.32 K, 24000 kPa, x2 = 0.7549) was 780.7 ± 0.4 kg/m3, the mass density (343.32 K, 25000 kPa, x2 = 0.7549) was 783.5 ± 0.4 kg/m3 and the mass density (353.12 K, 9000 kPa, x2 = 0.0955) was 722.6 ± 0.3 kg/m3. The mass density (353.12 K, 9000 kPa, x2 = 0.2526) was 724.8 ± 0.3 kg/m3, the mass density (353.12 K, 10000 kPa, x2 = 0.0955) was 723.6 ± 0.3 kg/m3 and the mass density (353.12 K, 10000 kPa, x2 = 0.2526) was 725.8 ± 0.3 kg/m3. It also gave a mass density (353.12 K, 11000 kPa, x2 = 0.0955) of 724.5 ± 0.4 kg/m3, a mass density (353.12 K, 11000 kPa, x2 = 0.2526) of 726.8 ± 0.3 kg/m3 and a mass density (353.12 K, 12000 kPa, x2 = 0.0955) of 725.4 ± 0.4 kg/m3. It also gave a mass density (353.12 K, 12000 kPa, x2 = 0.2526) of 727.8 ± 0.3 kg/m3, a mass density (353.12 K, 13000 kPa, x2 = 0.0955) of 726.3 ± 0.4 kg/m3 and a mass density (353.12 K, 13000 kPa, x2 = 0.2526) of 728.8 ± 0.4 kg/m3. The mass density (353.12 K, 14000 kPa, x2 = 0.0955) was 727.2 ± 0.4 kg/m3, the mass density (353.12 K, 14000 kPa, x2 = 0.2526) was 729.7 ± 0.4 kg/m3 and the mass density (353.12 K, 15000 kPa, x2 = 0.0955) was 728.1 ± 0.4 kg/m3. The mass density (353.12 K, 15000 kPa, x2 = 0.2526) was 730.7 ± 0.4 kg/m3, the mass density (353.12 K, 16000 kPa, x2 = 0.0955) was 729 ± 0.4 kg/m3 and the mass density (353.12 K, 16000 kPa, x2 = 0.2526) was 731.6 ± 0.4 kg/m3. It also gave a mass density (353.12 K, 17000 kPa, x2 = 0.0955) of 729.9 ± 0.4 kg/m3, a mass density (353.12 K, 17000 kPa, x2 = 0.2526) of 732.5 ± 0.4 kg/m3 and a mass density (353.12 K, 18000 kPa, x2 = 0.0955) of 730.7 ± 0.4 kg/m3. It also gave a mass density (353.12 K, 18000 kPa, x2 = 0.2526) of 733.4 ± 0.4 kg/m3, a mass density (353.12 K, 19000 kPa, x2 = 0.0955) of 731.5 ± 0.4 kg/m3 and a mass density (353.12 K, 19000 kPa, x2 = 0.2526) of 734.3 ± 0.4 kg/m3.
